Data taken from US9260382B2, “Methods of reducing virulence in bacteria” (priority 2010, dated 2016).
“Also recorded” adds a separate entry of the source.

How the values were obtained:
hrpA promoter (T3SS) [1] = assay: GFP reporter plasmid phrpA, flow cytometry (FACS) of hrpA promoter activity; assay type: cell-based, Dickeya dadantii 3937; conditions: for mean fluorescence intensity of GFP, hrpA expression: D. dadantii 3937 (phrpA), MM + 100 μM compound; for inhibitory activity on T3SS gene (hrpA) expression, in words: D. dadantii 3937, reporter plasmid phrpA, 100 μM; for minimal effective concentration: Dickeya dadantii, read-out: minimal inhibitory concentration on hrpA expression (concentration showing inhibitory effect)
Description: (§1) FACS analysis of promoter activity of dspE, hrpA, hrpL, hrpN, and hrpS was carried out as described (Peng et al., 2006). Briefly, the wild-type Ech3937 and the mutant strains carrying the promoter reporter plasmid were grown on LB broth at 28° C. overnight and transferred to appropriate media. For FACS analysis, samples were collected by centrifugation, washed with 1× phosphate buffer saline (PBS) at 13,000 rpm for 1 min, and re-suspended in 1×PBS to ca 10^6 CFU/ml prior to being run in a FACS Calibur flow cytometer (BD Biosciences, CA). Three replicates were performed for each treatment.
To identify potential compounds that repress activation of T3SS, analogs and isomers of TCA and intermediates of salicylic acid and phenypropanoid biosynthesis pathways in plants were further screened for their effect on Ech3937 hrpA expression by flow cytometry (Table 9). A green fluorescent protein (GFP) reporter plasmid phrpA (pProbe-AT derivative with PCR fragment containing hrpA promoter region) was constructed, resulting in a transcriptional fusion of hrpA promoter with GFP gene. Bacterial cells containing phrpA plasmid were grown in MM supplemented with 0.1 mM of each compound. GFP intensity, which is a measurement of hrpA promoter activity, was measured by flow cytometry.
hrpA encodes the T3SS pilus required for protein translocation into plant cells. To test for an inhibitory effect on T3SS hrpA expression, the reporter plasmid phrpA was used to measure the effects of these compounds on hrpA expression. The reporter plasmid phrpA encodes a transcriptional fusion of the hrpA promoter controlling expression of green fluorescent protein (gfp). 50 μL of bacterial suspension of D. dadantii 3937 carrying the hrpA reporter (optical density at 600 nm OD600=1.0) was used as the initial inoculum and added to 5 mL of MM or MM supplemented with 100 μM of one of the compounds. The expression level of hrpA of these bacterial cells was measured by measuring GFP intensity of gated populations of the bacterial cells by flow cytometry and analyzed with Cell Quest software (BD Biosciences, San Jose, Calif.). The fluorescence intensities were an average GFP fluorescence intensity of total bacterial cells. Compounds were assayed two different times (12 and 24 h of bacterial growth) with T3SS minimal media (MM) as the control treatment for each set of experiment. Values presented in Table 14 are mean fluorescence intensity of GFP, representative of two experiments, presented as the average of three replicates with standard deviation (SD).

hrpA promoter (T3SS) [2] = assay: hrpA promoter-probe phrpA in Erwinia amylovora 273, flow cytometry; assay type: cell-based; conditions: Ea273 (phrpA), HIM + 100 μM compound
How it was run: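 Erwinia amylovora 273 carrying an hrpA promoter–GFP fusion (pPROBE-NT) was grown in hrp-inducing medium with 100 μM compound or DMSO. Promoter activity read as GFP intensity by flow cytometry at 6 h and 9 h.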

hrpS promoter = assay: GFP reporter plasmid phrpS, flow cytometry of hrpS promoter activity; assay type: cell-based, Dickeya dadantii 3937; conditions: reporter plasmid phrpS
Description: as §1
To test for an inhibitory effect on T3SS hrpS expression, the reporter plasmid phrpS was used to measure the effects of these compounds on hrpA expression.

exoS promoter (T3SS) = assay: exoS promoter-gfp reporter pATexoS, flow cytometry; assay type: cell-based, P. aeruginosa PA01; conditions: for effect on exoS promoter activity, in words: screening for T3SS inhibitors; for Fraction of untreated control (exoS expression): structure-activity table, concentration not given; for Actual readings of flow cytometry (exoS expression): 6 h, LB with 200 mM NaCl, 10 mM NTA
Description: To identify T3SS inhibitors of PA01, a promoter-probe vector pPROBE-AT containing the promoterless green fluorescent protein (gfp) gene was used to construct an exoS promoter-gfp plasmid reporter, pATexoS. PA01 containing pATexoS was cultured in T3SS-inducing medium containing dimethyl sulfoxide (DMSO; solvent of chemical compounds), or supplemented with 250 μM of each compound, and promoter activity was assessed at 6 h by measuring GFP intensity using flow cytometry. 101 compounds (58 synthesized and 43 commercially available) were screened. Compounds 027, 032, 101, and 149 repressed exoS expression at the final concentration of 250 μM by at least one standard deviation below the sample average (Z score≦−1) (FIG. 37 A-E). Z score (or standard score) indicates how many standard deviations an observation or datum is above or below the mean [z=(x−μ)/σ, where x is a raw score to be standardized, μ is the mean of the population, and σ is the standard deviation of the population].
To determine the effective concentration of compounds, the dose-dependent effect of potential inhibitors on exoS expression and bacterial growth were tested. P. aeruginosa cells carrying pATexoS were pre-cultured in LB supplemented with 200 mM NaCl and transferred to fresh LB with 200 mM NaCl, 10 mM NTA, and various concentrations of compounds (20, 50, 100, and 250 μM) or DMSO for 6 h. […] At 50 μM dosage, both 027 and 101 inhibited exoS expression at similar levels, and this inhibitory effect increased as compound concentration increased (FIG. 38A and Table 17). […] These inhibitions/inductions of exoS expression are caused by the shifting bacterial population between low-state expression cells and high-state expression cells (FIG. 40).

[3] = Trial 2, MM supplemented with compound at 100 μM

Row | Compound | mean fluorescence intensity of GFP, hrpA expression (hrpA promoter (T3SS) [1]; 12 h) | mean fluorescence intensity of GFP, hrpA expression (hrpA promoter (T3SS) [1]; 24 h) | inhibitory activity on T3SS gene (hrpA) expression, in words (hrpA promoter (T3SS) [1]) | minimal effective concentration (hrpA promoter (T3SS) [1]) [µM] | Mean Fluorescence Intensity of GFP (hrpA, phrpA) (hrpA promoter (T3SS) [1]; Trial 1, MM supplemented with compound at 100 μM) | Avg MFI ± SD, hrpA expression (hrpA promoter (T3SS) [2]; 6 h) | Avg MFI ± SD, hrpA expression (hrpA promoter (T3SS) [2]; 9 h) | inhibitory effect on T3SS hrpS expression, in words (hrpS promoter) | effect on exoS promoter activity, in words (exoS promoter (T3SS)) | Fraction of untreated control (exoS expression) (exoS promoter (T3SS)) | Mean Fluorescence Intensity of GFP (hrpA, phrpA) (hrpA promoter (T3SS) [1]; [3]) | Actual readings of flow cytometry (exoS expression) (exoS promoter (T3SS); 20 uM) | Actual readings of flow cytometry (exoS expression) (exoS promoter (T3SS); 50 uM) | Actual readings of flow cytometry (exoS expression) (exoS promoter (T3SS); 100 uM) | Actual readings of flow cytometry (exoS expression) (exoS promoter (T3SS); 250 uM)
1 | CCOC(=O)[C@@H]1C[C@H]1c1ccc(O)cc1 (relative stereo) [Compound 106, Ethyl trans-2-(4-hydroxyphenyl)-1-cyclopropanecarboxylate] | 10.5 ± 0.8 | 49.4 ± 4.1 | showed inhibitory effect; also recorded: strong inhibitory potency | 100 | 9.4 ± 0.1 | 1289.3 ± 46.5 | 1110.9 ± 67.5 | inhibited hrpS | – | – | – | – | – | – | –
2 | O=C(/C=C/c1ccccc1)NO [Compound 132, trans-Cinnamohydroxamic acid] | – | – | – | – | – | 145.7 ± 1.2 | 147.8 ± 4.2 | – | little or no effect on exoS promoter activity | 1.53 ± 0.19 | – | – | – | – | –
3 | O=C(/C=C/c1c[nH]c2ccccc12)NO [Compound 127, trans-3-Indoleacrylohydroxamic acid] | 21.0 ± 3.0 | 35.1 ± 3.0 | showed inhibitory effect; also recorded: moderate potency | 100 | – | 91.4 ± 4.9 | 102.7 ± 0.5 | inhibited hrpS | – | – | 26.2 ± 2.6 | – | – | – | –
4 | NC/C=C/c1ccc(O)cc1 [Compound 117, para-Coumarylamine] | 49.8 ± 1.6 | 73.1 ± 2.0 | did not show any inhibitory activity | – | – | 452.6 ± 9.5 | 547.9 ± 112.4 | – | – | – | – | – | – | – | –
5 | NC(=O)/C=C/c1ccc(Cl)cc1 [Compound 109, trans-4-Chlorocinnamide] | 35.7 ± 6.3 | 81.5 ± 3.8 | – | – | – | 172.9 ± 20.5 | 90.6 ± 12.0 | – | – | – | – | – | – | – | –
6 | CCOP(=O)(/C=C/c1ccc(O)cc1)OCC [Compound 114, Diethyl trans-2-(4-hydroxyphenyl)-vinylphosphonate] | 55.4 ± 1.0 | 76.5 ± 5.6 | did not exhibit any activity | – | – | 495.8 ± 14.2 | 661.2 ± 134.3 | – | – | – | – | – | – | – | –
7 | O=C(O)/C=C/c1ccc(C(F)(F)F)cc1 [Compound 113, trans-4-Trifluoromethylcinnamic acid] | 24.4 ± 0.9 | 68.5 ± 5.7 | inactive | 100 | – | 84.2 ± 7.5 | 97.4 ± 23.6 | – | – | – | – | – | – | – | –
8 | CNC(=O)/C=C/c1ccc(O)cc1 [Compound 137, N-Methyl-4-hydroxycinnamamide] | – | – | – | – | – | 1064.1 ± 99.3 | 1121.1 ± 52.1 | – | little or no effect on exoS promoter activity | 0.92 ± 0.05 | – | – | – | – | –
9 | CN(C)c1ccc(/C=C/C(=O)O)cc1 [Compound 112, trans-4-Dimethylaminocinnamic acid] | 23.8 ± 4.3 | 60.7 ± 6.4 | – | – | – | 87.0 ± 4.0 | 37.3 ± 3.7 | – | – | – | – | – | – | – | –
10 | O=C(O)[C@@H]1C[C@H]1c1ccc(O)cc1 (relative stereo) [Compound 107, trans-2-(4-Hydroxyphenyl)-1-cyclopropanecarboxylic acid] | 45.9 ± 2.7 | 122.1 ± 17.9 | no inhibitory activity | – | – | 1464.3 ± 76.5 | 1348.0 ± 82.6 | – | – | – | – | – | – | – | –
11 | O=C1c2ccccc2C(=O)N1C/C=C/c1ccc(O)cc1 [Compound 116, N-(para-Coumaryl)phthalimide] | 24.3 ± 1.5 | 39.3 ± 3.5 | showed inhibitory effect; also recorded: moderated inhibitory activity | 100 | – | 889.1 ± 61.8 | 1466.4 ± 17.8 | – | – | – | 27.0 ± 2.1 | – | – | – | –
12 | COC(=O)/C=C/c1ccc(O)cc1 [Compound 101, Methyl para-coumate] | 17.5 ± 0.7 | 19.9 ± 0.5 | – | 100 | – | 1443.4 ± 49.4 | 1227.8 ± 41.6 | – | – | 0.65 ± 0.03 | – | 122.82 ± 2.89 | 106.83 ± 3.09 | 100.10 ± 1.33 | 81.88 ± 2.41
